Holding throughout (format): cell-based
The subject of assay [1] is A-549 (Lung carcinoma). Briefly: MTT cytotoxicity assay, A-549. As to conditions: Homo sapiens, A549, 24 h, 24 h incubation. How it is done: (§1) The cell lines A-549 (Lung carcinoma), CACO (Colorectal carcinoma), HCT-116 (Colon carcinoma), Hela (Cervical carcinoma), HepG-2 (Hepatocellular carcinoma), and MCF-7 (Breast carcinoma) were obtained from the Regional Center for Mycology and Biotechnology, Al-Azhar University, Cairo, Egypt.
(§2) The antitumor assay was carried out on the above cell lines as published by A Ooi et al., ‘A Guide to Transient Expression of Membrane Proteins in HEK-293 Cells for Functional Characterization”, Front. Physiol. 7:300, published online 19 Jul. 2016, for all of the extracts which have been obtained in section above (A, R, AL, APC, RPC, APB, RPB, AR &RR). Briefly, the cell lines were suspended in medium at a concentration of 5×10^4 cell/well in Corning® 96-well tissue culture plates and then incubated for 24 hr. The tested extracts were then added into 96-well plates (six replicates) to achieve seven concentrations for each extract. […] After incubation for 24 h, the numbers of viable cells were determined by the MTT assay method. […] Then, the optical density was measured at 590 nm with the microplate reader to determine the number of viable cells. The percentage of viability was calculated as: (ODt/ODc)×100%, where ODt is the mean optical density of wells treated with the tested sample and ODc is the mean optical density of untreated cells. […]

Assay [2] concerns MCF-7 (Breast carcinoma). Briefly: MTT cytotoxicity assay, MCF-7. The conditions noted are these: Homo sapiens, MCF7, 24 h incubation. The procedure:
as §1, §2
(In general: Formazan colour is commonly taken as a measure of viable cells.)

For assay [3], the system named is HCT-116 (Colon carcinoma). The assay can be described thus: MTT cytotoxicity assay, HCT-116. As to conditions: Homo sapiens, 24 h incubation. The procedure:
as §1, §2

For assay [4], the system named is CACO (Colorectal carcinoma). Briefly: MTT cytotoxicity assay, CACO. The conditions noted are these: 24 h incubation. The procedure:
as §1, §2

Assay [5] has as its system HepG-2 (Hepatocellular carcinoma). Briefly: MTT cytotoxicity assay, HepG-2. As to conditions: Homo sapiens, HepG2, 24 h incubation. The procedure: as §1, §2

Counter-ions that a name gives are not always drawn.

By IC50 is commonly meant the midpoint of a concentration-inhibition curve. A high value points to lower potency.

As for `CC[C@]1(O)C[C@@H]2CN(CCc3c([nH]c4ccccc34)[C@@](C(=O)OC)(c3cc4c(cc3OC)N(C)[C@H]3[C@@](O)(C(=O)OC)[C@H](OC(C)=O)[C@]5(CC)C=CCN6CC[C@]43[C@@H]65)C2)C1` [Vinblastine sulfate], the IC50 amounted to 30.3 ± 1.4 µg/mL in assay [1]; 5.9 ± 0.4 µg/mL in assay [2]; 3.5 ± 0.2 µg/mL in assay [3]; 24.6 ± 0.7 µg/mL in assay [4] (24 h); 2.93 ± 0.3 µg/mL in assay [5]. The “IC50 CACO (Colorectal carcinoma)” value in assay [4] is 30.3 ± 1.4 µg/mL.

The values above are taken from US20190231841A1, “CENCHRUS CILIARIS L. AS AN ANTICANCER AGENT” (KING SAUD UNIVERSITY, priority 2018, published 2019).
